Experimental data from patent publication US7084158B2, “Substituted propargylamines” (Bayer Cropscience S.A., priority 2001, dated 2006).

Experiments:
Format in all cases: in vivo
Parameters in all cases: key: compounds were considered to be active when, at a concentration of 500 ppm or less, they had an activity on the harmful organisms of 50% or more
[1] = system: Carpocapsa pomonella; test: Example AA: insect diet mixed with compound, codling moth L1 larvae mortality; settings: 500 ppm or less, compound mixed into insect diet, after 14 days
Description: Insect diet was mixed with an aqueous solution of the formulated compound to be examined and populated with 10 L1 larvae of the codling moth (Carpocapsa pomonella). After 14 days of storage at about 23° C., the mortality among the larvae was determined. The following examples were active: 70, 197.

[2] = system: Diabrotica undecimpunctata; test: Example AC: treated soil, southern corn rootworm eggs mortality; settings: 500 ppm or less, eggs added after 0d, 21d and 42d, after 2 weeks
Description: An aqueous solution of the formulated compound to be examined was mixed with soil. After 0d, 21d and 42d, eggs of the southern corn rootworm (Diabrotica undecimpunctata) were placed together with 2 pre-swollen maize corns into a dish, covered with the treated soil and moisted with 10 ml of water. Soil and eggs were placed in a greenhouse (23° C., 60% relative atmosphere humidity). After 2 weeks of storage, the effect of the compound on the eggs and any larvae hatched therefrom was determined (mortality). The following examples were active: 70, 60, 197, 204.

[3] = system: Leptinotarsa decemlineata; test: Example L: potato leaves and larvae sprayed, Colorado beetle mortality; settings: 500 ppm or less, after 4 days
Description: Potato leaves were populated with larvae of the Colorado beetle (Leptinotarsa decemlineata). Leaves and larvae were then sprayed with an aqueous solution of the formulated compound to be examined. After 4 days of storage at about 25° C., the effect of the compound on the larvae was determined (mortality). The compounds of the following examples were active: 60, 70, 1002, 1004, 1005, 1036, 1047, 197.

[4] = system: Rhipicephalus sanguineus; test: Example AF: treated filter paper, tick larvae mortality; settings: 500 ppm or less, after 24 hours
Description: The formulated compound was pipetted onto filter paper. After the solvent had evaporated, 20–30 tick larvae (Rhipicephalus sanguineus) were placed onto the filter paper. After 24 hours at about 25° C., the effect of the compound on the ticks was determined (mortality). The following examples were active: 197, 1057.

[5] = system: Spodoptera exigua; test: Example Z: cotton leaves with larvae sprayed, sugar beet armyworm mortality; settings: 500 ppm or less; cotton leaves populated then sprayed; L2 larvae; after 4 days
Description: Cotton leaves were populated with 5 L2 larvae of the sugar beet armyworm (Spodoptera exigua) and then sprayed with an aqueous solution of the formulated compound to be examined. After 4 days of storage at about 23° C., the mortality among the larvae was determined. The following examples were active: 1036, 70, 60, 1047, 197.

[6] = system: Heliothis virescens; test: Example AB: cotton leaves with larvae sprayed, tobacco budworm mortality; settings: 500 ppm or less; cotton leaves with L2 larvae sprayed; after 4 days
Description: Cotton leaves were placed into a Petri dish, populated with 5 L2 larvae of the American tobacco budworm (Heliothis virescens) and sprayed with an aqueous solution of the formulated compound to be examined. After 4 days of storage at about 25° C., the mortality among the larvae was determined. The following examples were active: 70, 1047, 197.

[7] = system: Spodoptera exigua; test: Example Y: cotton plants sprayed, cut leaves, sugar beet armyworm mortality; settings: 500 ppm or less, leaves cut after drying, L2 larvae, after 4 days
Description: Cotton plants were sprayed with an aqueous solution of the formulated compound to be examined. After drying, leaves were cut off, placed into a Petri dish and populated with 5 L2 larvae of the sugar beet armyworm (Spodoptera exigua). After 4 days of storage at about 23° C., the mortality among the larvae was determined. The following examples were active: 1036, 70, 60, 1047, 197.

[8] = system: Diabrotica undecimpunctata; test: Example C: corn rootworm eggs with maize corn, mortality; settings: 500 ppm or less; 4-5-day-old eggs; after 6 days
[9] = system: Nilaparvata lugens; test: Example A: rice leaf dip, leafhopper larvae mortality; settings: 500 ppm or less; L3 larvae on dipped rice plants; after 6 days
Description: The leaves of 12 rice plants having a stem length of 8 cm were dipped for 5 seconds into an aqueous solution of the formulated compound to be examined. After the solution had run off, the rice plants treated in this manner were placed into a Petri dish and populated with about 20 larvae (L3 stage) of the rice leafhopper species Nilaparvata lugens. The Petri dish was closed and then stored in a climatized chamber (16 hours of light/day, 25° C., 40–60% relative atmospheric humidity). After 6 days of storage, the mortality among the leafhopper larvae was determined. The compounds of the following examples were active: Nos. 29, 32, 42, 43, 51, 70, 84, 1002, 1004, 1005, 1040, 180, 184, 193, 197, 203, 209, 1059, 264, 265, 1066.

[10] = system: Trialeurodes vaporariorum; test: Example AD: bush beans sprayed, white fly larvicidal action; settings: 500 ppm or less; bush beans sprayed after hatching; after 11 days
Description: For oviposition, bush beans (Phaseolus vulgaris) were populated for 48 hours with adults of the white fly (Trialeurodes vaporariorum). After the larvae had hatched, the plants were sprayed to run-off point with an aqueous solution of the formulated compound to be examined. After 11 days, the larvicidal action was determined. The following examples were active: 1036, 70, 60, 1040, 197.

[11] = system: Carpocapsa pomonella; test: Example D: dipped apples, codling moth L1 larvae mortality; settings: 500 ppm or less, after 14 days
Description: Apples were dipped into an aqueous solution of the formulated compound to be examined. The apples were then populated with 10 L1 larvae of the codling moth (Carpocapsa pomonella). After 14 days of storage at about 25° C., the effect of the compound on the larvae was determined (mortality). The compounds of the following examples were active: Nos. 14, 15, 17, 18, 70, 1007, 1008, 1009, 1036, 1038, 197.

[12] = system: Plutella maculipennis; test: Example K: sprayed white cabbage leaf, diamondback moth larvae mortality; settings: 500 ppm or less, after 3 days
Description: A white cabbage leaf was sprayed with an aqueous solution of the formulated compound to be examined. After the spray coating had dried, the treated leaf was populated with larvae of the diamondback moth (Plutella maculipennis). After 3 days of storage at about 23° C., the effect of the compound on the larvae was determined (mortality). The compounds of the following examples were active: 60, 70, 1002, 1004, 1005, 1036, 197.

[13] = system: Heliothis virescens; test: Example B: tobacco budworm eggs on filter paper/insect diet, mortality; settings: 500 ppm or less; 24-hour-old eggs dipped, diet treated; after 6 days
[14] = system: Ctenocephalides felis; test: Example M: cat fleas fed with treated cattle blood, mortality; settings: 500 ppm or less; adult fleas fed blood-preparation mixture; after 48 hours
Description: The formulated compound was mixed with defibrinated cattle blood. 10 adult cat fleas (Ctenocephalides felis) were fed with this blood-preparation mixture. After 48 hours at about 38° C., the effect of the compound on the fleas was determined (mortality). The compounds of the following examples were active: 70, 1002, 1004, 1005, 1036, 60, 197, 1057.

Cc1cc(C(F)(F)F)cc(C#CCN2CCC(C)CC2)n1 [Example 197]
active: mortality among the larvae [1] | effect on the eggs and hatched larvae (mortality) [2] | effect on the larvae (mortality) [3] | effect on the ticks (mortality) [4] | mortality among the larvae [5] | mortality among the larvae [6] | mortality among the larvae [7] | effect on the eggs and hatched larvae (mortality) [8] | mortality among the leafhopper larvae [9] | larvicidal action [10] | effect on the larvae (mortality) [11] | effect on the larvae (mortality) [12] | effect on the eggs and hatched larvae (mortality) [13] | effect on the fleas (mortality) [14]
